From ChEMBL document CHEMBL1201862, “PubChem BioAssay data set” (2004)
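Step 1: Grow cells in 96-well plates. Step 2: Expose to compound for 48 hours at 5 concentrations. Step 3: Interpolate endpoints linearly; if unreached, use highest concentration. GI50 is the concentration that inhibits growth by half.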 The source made the active and inactive calls. Rule as the data show it: active = GI50 up to about 1.1 µM and inactive = higher.

What was measured:
Experiment in all cases: NCI tumour cell line growth inhibition, 48 h
[1] = tested on: SNB-75
[2] = tested on: UACC-257
[3] = tested on: OVCAR-4
[4] = tested on: SF-268
[5] = tested on: SN12C
[6] = tested on: UACC-62
[7] = tested on: OVCAR-3
[8] = tested on: SF-539
[9] = tested on: HCT-15
[10] = tested on: BT-549
[11] = tested on: SK-OV-3
[12] = tested on: HCC 2998
[13] = tested on: K562
[14] = tested on: TK-10
[15] = tested on: COLO 205
[16] = tested on: M14
[17] = tested on: HL-60
[18] = tested on: U-251
[19] = tested on: CCRF-CEM
[20] = tested on: NCI-H23
[21] = tested on: OVCAR-8
[22] = tested on: MDA-N
[23] = tested on: SNB-19
[24] = tested on: SR
[25] = tested on: HCT-116
[26] = tested on: A549
[27] = tested on: NCI-H226
[28] = tested on: UO-31
[29] = tested on: DU-145
[30] = tested on: IGROV-1
[31] = tested on: SK-MEL-2
[32] = tested on: MDA-MB-435
[33] = tested on: RXF 393
[34] = tested on: MOLT-4
[35] = tested on: SK-MEL-28
[36] = tested on: RPMI-8226
[37] = tested on: PC-3
[38] = tested on: CAKI-1
[39] = tested on: SW-620
[40] = tested on: HOP-92
[41] = tested on: Hs-578T
[42] = tested on: MCF7
[43] = tested on: KM12
[44] = tested on: T47D
[45] = tested on: HOP-62
[46] = tested on: NCI-H460
[47] = tested on: NCI/ADR-RES
[48] = tested on: LOX IMVI
[49] = tested on: ACHN
[50] = tested on: A498
[51] = tested on: OVCAR-5
[52] = tested on: MDA-MB-231
[53] = tested on: HT-29
[54] = tested on: SK-MEL-5
[55] = tested on: NCI-H522
[56] = tested on: EKVX
[57] = tested on: SF-295
[58] = tested on: 786-0
[59] = tested on: Malme-3M

CCOC(=O)NNC1(SC)NC(=O)c2c(cc(Cl)oc2=O)O1 (centres undefined)
GI50 [1]: 9.84 µM (inactive)
GI50 [2]: 7.26 µM (inactive)
GI50 [3]: 6.17 µM (inactive)
GI50 [4]: 3.49 µM (inactive)
GI50 [5]: 3.21 µM (inactive)
GI50 [6]: 5.97 µM (inactive)
GI50 [7]: 2.84 µM (inactive)
GI50 [8]: 1.79 µM (inactive)
GI50 [9]: 2.17 µM
GI50 [10]: 4.37 µM (inactive)
GI50 [11]: 8.02 µM (inactive)
GI50 [12]: 4.29 µM (inactive)
GI50 [13]: 1.62 µM (inactive)
GI50 [14]: 3.55 µM (inactive)
GI50 [15]: 6.93 µM (inactive)
GI50 [16]: 3.37 µM (inactive)
GI50 [17]: 1.9 µM (inactive)
GI50 [18]: 10.8 µM (inactive)
GI50 [19]: 2.34 µM (inactive)
GI50 [20]: 3.61 µM (inactive)
GI50 [21]: 2.07 µM (inactive)
GI50 [22]: 2.58 µM (inactive)
GI50 [23]: 11.5 µM (inactive)
GI50 [24]: 2.36 µM (inactive)
GI50 [25]: 1.46 µM (inactive)
GI50 [26]: 8.11 µM (inactive)
GI50 [27]: 20.9 µM (inactive)
GI50 [28]: 1.72 µM (inactive)
GI50 [29]: 4.17 µM (inactive)
GI50 [30]: 3.87 µM (inactive)
GI50 [31]: 7.73 µM (inactive)
GI50 [32]: 4.83 µM (inactive)
GI50 [33]: 3.14 µM (inactive)
GI50 [34]: 2.67 µM (inactive)
GI50 [35]: 3.08 µM (inactive)
GI50 [36]: 2.84 µM (inactive)
GI50 [37]: 3.4 µM (inactive)
GI50 [38]: 2.72 µM (inactive)
GI50 [39]: 3.31 µM (inactive)
GI50 [40]: 1.96 µM (inactive)
GI50 [41]: 5.64 µM (inactive)
GI50 [42]: 1.91 µM (inactive)
GI50 [43]: 10.4 µM (inactive)
GI50 [44]: 6.85 µM (inactive)
GI50 [45]: 11.3 µM (inactive)
GI50 [46]: 8 µM (inactive)
GI50 [47]: 6.84 µM (inactive)
GI50 [48]: 2.06 µM (inactive)
GI50 [49]: 1.87 µM (inactive)
GI50 [50]: 14.2 µM (inactive)
GI50 [51]: 11.5 µM (inactive)
GI50 [52]: 8.41 µM (inactive)
GI50 [53]: 2.19 µM (inactive)
GI50 [54]: 5.16 µM (inactive)
GI50 [55]: 2.12 µM (inactive)
GI50 [56]: 6.85 µM (inactive)
GI50 [57]: 12.4 µM (inactive)
GI50 [58]: 1.92 µM (inactive)

COc1ccc(CC2c3cc(OC)c(OC)c(OC)c3CC[N+]2(C)C)cc1Oc1ccc(CC2c3cc4c(c(OC)c3CCN2C)OCO4)cc1 (centres undefined)
GI50 [1]: > 100 µM (inactive)
GI50 [2]: > 100 µM (inactive)
GI50 [3]: > 100 µM (inactive)
GI50 [4]: > 100 µM (inactive)
GI50 [5]: > 100 µM (inactive)
GI50 [6]: > 100 µM (inactive)
GI50 [7]: > 100 µM (inactive)
GI50 [8]: > 100 µM (inactive)
GI50 [9]: > 100 µM
GI50 [10]: > 100 µM (inactive)
GI50 [11]: > 100 µM (inactive)
GI50 [12]: > 100 µM (inactive)
GI50 [13]: 57.5 µM (inactive)
GI50 [14]: > 100 µM (inactive)
GI50 [15]: > 100 µM (inactive)
GI50 [16]: > 100 µM (inactive)
GI50 [17]: 35.5 µM (inactive)
GI50 [18]: > 100 µM (inactive)
GI50 [20]: > 100 µM (inactive)
GI50 [21]: > 100 µM (inactive)
GI50 [22]: > 100 µM (inactive)
GI50 [23]: > 100 µM (inactive)
GI50 [24]: 52.1 µM (inactive)
GI50 [25]: > 100 µM (inactive)
GI50 [26]: > 100 µM (inactive)
GI50 [27]: > 100 µM (inactive)
GI50 [28]: > 100 µM (inactive)
GI50 [59]: > 100 µM (inactive)
GI50 [29]: > 100 µM (inactive)
GI50 [30]: > 100 µM (inactive)
GI50 [31]: > 100 µM (inactive)
GI50 [32]: > 100 µM (inactive)
GI50 [33]: > 100 µM (inactive)
GI50 [34]: > 100 µM (inactive)
GI50 [35]: > 100 µM (inactive)
GI50 [37]: > 100 µM (inactive)
GI50 [38]: > 100 µM (inactive)
GI50 [39]: > 100 µM (inactive)
GI50 [40]: > 100 µM (inactive)
GI50 [41]: > 100 µM (inactive)
GI50 [42]: > 100 µM (inactive)
GI50 [43]: > 100 µM (inactive)
GI50 [44]: > 100 µM (inactive)
GI50 [46]: 92 µM (inactive)
GI50 [47]: > 100 µM (inactive)
GI50 [48]: > 100 µM (inactive)
GI50 [49]: > 100 µM (inactive)
GI50 [50]: > 100 µM (inactive)
GI50 [51]: > 100 µM (inactive)
GI50 [52]: > 100 µM (inactive)
GI50 [53]: > 100 µM (inactive)
GI50 [54]: 96.6 µM (inactive)
GI50 [55]: 97.7 µM (inactive)
GI50 [56]: > 100 µM (inactive)
GI50 [57]: > 100 µM (inactive)
GI50 [58]: > 100 µM (inactive)
